The values that follow come from article PMC4447972, “Mechanism of the Association between Na^+ Binding and Conformations at the Intracellular Gate in Neurotransmitter:Sodium Symporters” (The Journal of Biological Chemistry, 2015).

Data set [1] addresses T1, DAT (hDAT) (Homo sapiens, UniProt Q01959).
T1 construct: gene SLC6A3
The following applies: read-out: DA Km; 130 mM NaCl, pH 7.4; 6 nM [3H]DA plus unlabelled DA; apparent affinity for uptake.

Substrate in data set [2]: NCCc1ccc(O)c(O)c1
As to the kind of experiment: cells, lysate or membranes. The following applies: 130 mM NaCl, pH 7.4, 6 nM [3H]DA plus unlabelled DA, apparent affinity for uptake.

T1 sequence (Q01959 whole entry): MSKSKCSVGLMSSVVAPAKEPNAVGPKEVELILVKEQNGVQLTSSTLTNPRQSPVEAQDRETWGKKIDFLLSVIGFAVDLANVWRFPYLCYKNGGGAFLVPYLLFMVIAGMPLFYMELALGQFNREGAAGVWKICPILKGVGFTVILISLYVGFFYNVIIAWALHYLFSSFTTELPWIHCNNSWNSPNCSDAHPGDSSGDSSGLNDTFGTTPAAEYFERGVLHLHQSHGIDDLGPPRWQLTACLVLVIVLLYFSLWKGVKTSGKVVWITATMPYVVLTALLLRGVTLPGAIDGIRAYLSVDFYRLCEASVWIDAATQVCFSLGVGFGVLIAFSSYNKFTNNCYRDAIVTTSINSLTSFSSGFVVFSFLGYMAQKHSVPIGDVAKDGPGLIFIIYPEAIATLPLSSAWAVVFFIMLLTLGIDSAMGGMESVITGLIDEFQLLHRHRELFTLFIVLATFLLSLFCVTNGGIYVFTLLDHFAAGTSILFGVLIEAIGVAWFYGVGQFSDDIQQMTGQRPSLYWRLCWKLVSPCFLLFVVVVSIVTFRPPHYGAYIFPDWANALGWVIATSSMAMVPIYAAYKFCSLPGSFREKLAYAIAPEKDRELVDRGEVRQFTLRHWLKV

For the molecule `NCCc1ccc(O)c(O)c1` [dopamine], the Km in data set [1] was determined as 1.2 µM.

B1: DAT (hDAT) (Homo sapiens; D436A) (protein)
chain: MSKSKCSVGLMSSVVAPAKEPNAVGPKEVELILVKEQNGVQLTSSTLTNPRQSPVEAQDRETWGKKIDFLLSVIGFAVDLANVWRFPYLCYKNGGGAFLVPYLLFMVIAGMPLFYMELALGQFNREGAAGVWKICPILKGVGFTVILISLYVGFFYNVIIAWALHYLFSSFTTELPWIHCNNSWNSPNCSDAHPGDSSGDSSGLNDTFGTTPAAEYFERGVLHLHQSHGIDDLGPPRWQLTACLVLVIVLLYFSLWKGVKTSGKVVWITATMPYVVLTALLLRGVTLPGAIDGIRAYLSVDFYRLCEASVWIDAATQVCFSLGVGFGVLIAFSSYNKFTNNCYRDAIVTTSINSLTSFSSGFVVFSFLGYMAQKHSVPIGDVAKDGPGLIFIIYPEAIATLPLSSAWAVVFFIMLLTLGIDSAMGGMESVITGLIAEFQLLHRHRELFTLFIVLATFLLSLFCVTNGGIYVFTLLDHFAAGTSILFGVLIEAIGVAWFYGVGQFSDDIQQMTGQRPSLYWRLCWKLVSPCFLLFVVVVSIVTFRPPHYGAYIFPDWANALGWVIATSSMAMVPIYAAYKFCSLPGSFREKLAYAIAPEKDRELVDRGEVRQFTLRHWLKV
As to B1, the Km in data set [2] is 0.15 [0.13;0.18] μM.
